Test results: ChEMBL document CHEMBL1914389, “Steroidal C-21 mercapto derivatives as dissociated steroids: discovery of an inhaled dissociated steroid” (Bioorg Med Chem Lett, 2011)

Tests used:
Glucocorticoid receptor [1] = biological target: T1, Glucocorticoid receptor (Homo sapiens, UniProt P04150); test: Transactivation activity at glucocorticoid receptor in human HepG2 cells assessed as induction of tyrosine amino transferase; format: cell-based
T1 sequence (P04150 whole entry): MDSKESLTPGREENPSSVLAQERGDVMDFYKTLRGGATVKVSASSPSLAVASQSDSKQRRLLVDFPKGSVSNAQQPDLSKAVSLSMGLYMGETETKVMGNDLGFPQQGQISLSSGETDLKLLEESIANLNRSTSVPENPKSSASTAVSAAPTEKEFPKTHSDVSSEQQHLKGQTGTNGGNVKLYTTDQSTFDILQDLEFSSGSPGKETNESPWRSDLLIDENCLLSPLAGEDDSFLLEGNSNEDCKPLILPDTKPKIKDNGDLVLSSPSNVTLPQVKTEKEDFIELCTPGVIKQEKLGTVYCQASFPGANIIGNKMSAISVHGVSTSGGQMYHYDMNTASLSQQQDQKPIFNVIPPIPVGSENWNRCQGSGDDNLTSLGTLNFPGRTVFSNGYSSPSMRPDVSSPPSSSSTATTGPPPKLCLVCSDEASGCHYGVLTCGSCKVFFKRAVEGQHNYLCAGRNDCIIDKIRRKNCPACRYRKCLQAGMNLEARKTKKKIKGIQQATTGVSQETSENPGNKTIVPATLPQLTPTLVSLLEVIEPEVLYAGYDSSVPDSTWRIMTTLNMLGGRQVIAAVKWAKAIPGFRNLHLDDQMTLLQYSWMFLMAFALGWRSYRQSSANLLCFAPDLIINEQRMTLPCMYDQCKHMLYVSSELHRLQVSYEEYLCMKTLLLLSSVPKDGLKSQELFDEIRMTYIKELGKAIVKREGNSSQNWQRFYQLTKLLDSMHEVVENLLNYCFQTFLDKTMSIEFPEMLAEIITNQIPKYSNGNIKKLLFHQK

[2] = biological target: T2, Glucocorticoid receptor (Rattus norvegicus) (UniProt P06536); test: Transactivation activity at glucocorticoid receptor in rat H4II-E cells assessed as induction of tyrosine amino transferase at 1 uM relative to control; format: cell-based
T2 sequence (whole entry): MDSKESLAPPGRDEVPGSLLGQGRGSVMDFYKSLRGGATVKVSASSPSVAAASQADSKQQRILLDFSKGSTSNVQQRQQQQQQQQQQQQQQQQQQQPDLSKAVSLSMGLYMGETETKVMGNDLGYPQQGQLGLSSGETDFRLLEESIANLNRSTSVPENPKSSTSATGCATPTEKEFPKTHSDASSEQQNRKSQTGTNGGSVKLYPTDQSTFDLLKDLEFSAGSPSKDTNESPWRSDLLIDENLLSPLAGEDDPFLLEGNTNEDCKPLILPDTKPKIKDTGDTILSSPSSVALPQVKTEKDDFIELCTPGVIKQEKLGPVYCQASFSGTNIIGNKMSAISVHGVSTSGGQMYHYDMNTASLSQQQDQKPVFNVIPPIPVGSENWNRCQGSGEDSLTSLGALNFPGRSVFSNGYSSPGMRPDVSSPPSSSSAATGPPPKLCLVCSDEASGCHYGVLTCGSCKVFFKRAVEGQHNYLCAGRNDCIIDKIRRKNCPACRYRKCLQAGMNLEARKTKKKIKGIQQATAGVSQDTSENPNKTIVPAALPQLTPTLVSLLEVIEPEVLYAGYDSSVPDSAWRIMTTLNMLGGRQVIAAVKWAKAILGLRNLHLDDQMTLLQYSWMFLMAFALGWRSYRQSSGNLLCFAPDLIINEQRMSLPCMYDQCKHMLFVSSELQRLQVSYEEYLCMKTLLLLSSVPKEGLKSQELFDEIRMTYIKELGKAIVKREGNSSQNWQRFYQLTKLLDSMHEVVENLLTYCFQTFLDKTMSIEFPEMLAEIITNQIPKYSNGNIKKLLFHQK

[3] = biological target: T3, Glucocorticoid receptor (Homo sapiens) (UniProt P04150); test: Transactivation activity at glucocorticoid receptor in human HepG2 cells assessed as induction of tyrosine amino transferase at 1 uM relative to control; format: cell-based
T3 sequence (whole entry): T1 sequence (P04150 whole entry)

Glucocorticoid receptor [4] = biological target: T1, Glucocorticoid receptor; test: Transrepression activity at glucocorticoid receptor in human H292 cells assessed as inhibition of TNF-stimulated IL-6 cytokine synthesis; format: cell-based
[5] = biological target: T3, Glucocorticoid receptor (Homo sapiens); test: Transrepression activity at glucocorticoid receptor in human H292 cells assessed as inhibition of TNF-stimulated IL-6 cytokine synthesis at 1 uM relative to control; format: cell-based
Glucocorticoid receptor [6] = biological target: T1, Glucocorticoid receptor; test: Transactivation activity at glucocorticoid receptor in human HepG2 cells expressing luciferase-taggged GRE gene by luciferase reporter gene assay; format: cell-based
Glucocorticoid receptor [7] = biological target: T1, Glucocorticoid receptor; test: Inhibition of human glucocorticoid receptor
[8] = biological target: T3, Glucocorticoid receptor (Homo sapiens); test: Transactivation activity at glucocorticoid receptor in human HepG2 cells expressing luciferase-taggged GRE gene at 1 uM by luciferase reporter gene assay relative to control; format: cell-based
Rattus norvegicus [9] = test: Toxicity in ip dosed Brown-Norway rat assessed as decrease in adrenal weight administered for 3 days; format: organism-based; conditions: in vivo, 72 h
Rattus norvegicus [10] = test: Antiinflammatory activity in allergen challenged Brown-Norway rat assessed as inhibition of total BAL cell administered via nose as dry powder; format: functional
Lung = test: Drug uptake in lung of Brown-Norway rat; format: ADME, tissue-based; conditions: in vivo
Rattus norvegicus [11] = test: Toxicity in ip dosed Brown-Norway rat assessed as decrease in body weight administered for 3 days; format: organism-based; conditions: in vivo, 72 h
Rattus norvegicus [12] = test: Toxicity in ip dosed Brown-Norway rat assessed as decrease in thymus weight administered for 3 days; format: organism-based; conditions: in vivo, 72 h
Rattus norvegicus [13] = test: Antiinflammatory activity in intratracheal insufflated allergen challenged Brown-Norway rat assessed as inhibition of inflammatory cell influx administered as single dose; format: functional; conditions: inhaled or nasal
Glucocorticoid receptor [14] = biological target: T4, Glucocorticoid receptor (Rattus norvegicus, UniProt P06536); test: Transactivation activity at glucocorticoid receptor in rat H4II-E cells assessed as induction of tyrosine amino transferase; format: cell-based
T4 sequence (P06536 whole entry): T2 sequence (whole entry)

[15] = Therapeutic index, ratio of ED20 for thymolysis to ED70 for forced vital capacity in ovalbumin-challenged Brown-Norway rat; format: organism-based; conditions: in vivo, read-out: TI
Rattus norvegicus [16] = test: Induction of thymolysis in ovalbumin-challenged Brown-Norway rat at upto 730 ug/kg administered via nose inhalation; format: organism-based; conditions: in vivo, 0.73 mg/kg
[17] = AUC in rat at 10 mg/kg, po; format: ADME, organism-based; design: dose 10 mg/kg, route oral; conditions: plasma
Rattus norvegicus [18] = species on record: Rattus norvegicus; test: Ratio of fluticasone propionate TI to compound TI in ovalbumin-challenged Brown-Norway rat

Row | Emax [2] | Emax [3] | IC50 (Glucocorticoid receptor [4]) | Emax [5] | EC50 (Glucocorticoid receptor [6]) | IC50 (Glucocorticoid receptor [7]) | Emax [8] | SMILES | also measured
1 | 9% | 53% | 2.2 nM | 97% | – | – | – | C[C@]12CCC(=O)C=C1CC[C@@H]1[C@@H]2[C@@H](O)C[C@@]2(C)[C@H]1CC[C@]2(OC(=O)c1ccco1)C(=O)CSc1nc2ccccc2o1 | EC50 (Glucocorticoid receptor [1]): 55.6 nM
2 | 29% | – | 4.95 nM | 88% | 50 nM | 17 nM | 60% | C[C@@H]1C[C@H]2[C@@H]3CCC4=CC(=O)C=C[C@]4(C)[C@@]3(Cl)[C@@H](O)C[C@]2(C)[C@@]1(O)C(=O)CSc1nc2ccccc2s1 | –
3 | 4% | 33% | 15.9 nM | 86% | – | – | – | C[C@]12CCC(=O)C=C1CC[C@@H]1[C@@H]2[C@@H](O)C[C@@]2(C)[C@H]1CC[C@]2(OC(=O)c1ccco1)C(=O)CSc1nccc2ccccc12 | –
4 | 9% | 41% | 1.4 nM | 98% | – | – | – | C[C@]12CCC(=O)C=C1CC[C@@H]1[C@@H]2[C@@H](O)C[C@@]2(C)[C@H]1CC[C@]2(OC(=O)c1ccco1)C(=O)CSc1cnc2ccccc2n1 | –
5 | 17% | 39% | 3.7 nM | 98% | – | – | – | Cn1c(SCC(=O)[C@@]2(OC(=O)c3ccco3)CC[C@H]3[C@@H]4CCC5=CC(=O)CC[C@]5(C)[C@H]4[C@@H](O)C[C@@]32C)nc2ccccc21 | –
6 | 62% | 43% | 0.75 nM | 99% | 14.1 nM | – | 93% | C[C@]12C=CC(=O)C=C1CC[C@@H]1[C@@H]2[C@@H](O)C[C@@]2(C)[C@H]1CC[C@]2(OC(=O)c1ccco1)C(=O)CSc1nc2ccccc2s1 | EC50 (Glucocorticoid receptor [1]): 50.8 nM; EC50 (Glucocorticoid receptor [14]): 18.7 nM
7 | 32% | 24% | 2.1 nM | 96% | 17.3 nM | – | 73% | C[C@]12C=CC(=O)C=C1CC[C@@H]1[C@@H]2[C@@H](O)C[C@@]2(C)[C@H]1CC[C@]2(OC(=O)c1ccco1)C(=O)CSc1nccc2ccccc12 | –
8 | – | – | – | – | – | – | – | CCC(=O)OCC(=O)[C@@]1(OC(=O)CC)[C@@H](C)C[C@H]2[C@@H]3CCC4=CC(=O)C=C[C@]4(C)[C@@]3(Cl)[C@@H](O)C[C@@]21C [BECLOMETHASONE DIPROPIONATE] | selectivity ratio [15]: 1
9 | 24% | 43% | 2.1 nM | 98% | 13.3 nM | – | 97% | Cc1ccnc(SCC(=O)[C@@]2(OC(=O)c3ccco3)CC[C@H]3[C@@H]4CCC5=CC(=O)C=C[C@]5(C)[C@H]4[C@@H](O)C[C@@]32C)n1 | –
10 | 12% | 57% | 0.9 nM | 100% | – | – | – | Cc1nc(SCC(=O)[C@@]2(OC(=O)c3ccco3)CC[C@H]3[C@@H]4CCC5=CC(=O)CC[C@]5(C)[C@H]4[C@@H](O)C[C@@]32C)sc1C | EC50 (Glucocorticoid receptor [1]): 22.4 nM
11 | 19% | – | 35 nM | 78% | – | 3.8 nM | 29% | C[C@]12C=CC(=O)C=C1CC[C@@H]1[C@@H]2[C@@H](O)C[C@@]2(C)[C@H]1CC[C@]2(O)C(=O)CSc1nc2ccccc2s1 | –
12 | 11% | 22% | 2.85 nM | 96% | – | – | – | C[C@]12CCC(=O)C=C1CC[C@@H]1[C@@H]2[C@@H](O)C[C@@]2(C)[C@H]1CC[C@]2(OC(=O)c1ccco1)C(=O)CSc1ccc2ccccc2n1 | –
13 | 7% | 35% | 9.7 nM | 94% | – | – | – | C[C@]12CCC(=O)C=C1CC[C@@H]1[C@@H]2[C@@H](O)C[C@@]2(C)[C@H]1CC[C@]2(OC(=O)c1ccco1)C(=O)CSc1ncccn1 | –
14 | – | – | – | – | – | – | – | CCCC1O[C@@H]2C[C@H]3[C@@H]4CCC5=CC(=O)C=C[C@]5(C)[C@H]4[C@@H](O)C[C@]3(C)[C@]2(C(=O)CO)O1 (some centres not stated) [BUDESONIDE] | selectivity ratio [15]: 1
15 | 2% | 15% | 14.3 nM | 94% | – | – | – | C[C@]12CCC(=O)C=C1CC[C@@H]1[C@@H]2[C@@H](O)C[C@@]2(C)[C@H]1CC[C@]2(OC(=O)c1ccco1)C(=O)CSc1nc2ncccc2s1 | –
16 | 79% | – | 1.9 nM | 100% | 17 nM | 13 nM | 66% | C[C@@H]1C[C@H]2[C@@H]3C[C@H](F)C4=CC(=O)C=C[C@]4(C)[C@@]3(F)[C@@H](O)C[C@]2(C)[C@@]1(O)C(=O)CSc1nc2ccccc2s1 | EC50 (Glucocorticoid receptor [14]): 27 nM
17 | 2% | 5% | 2 nM | 100% | – | – | – | C[C@]12CCC(=O)C=C1CC[C@@H]1[C@@H]2[C@@H](O)C[C@@]2(C)[C@H]1CC[C@]2(OC(=O)c1ccco1)C(=O)CSc1nc2ccccc2s1 | selectivity ratio [15]: > 15; Activity (Rattus norvegicus [16]): >= 20%; AUC [17]: 7 ng·h/mL; Ratio (Rattus norvegicus [18]): 10
18 | 34% | – | 39.1 nM | 95% | 295 nM | 18 nM | 55% | C[C@H]1C[C@@H]2[C@H]([C@@H](O)C[C@@]3(C)[C@H]2CC[C@]3(O)C(=O)CSc2nc3ccccc3s2)[C@@]2(C)C=CC(=O)C=C12 | –

Row | SMILES | Emax [2] | Emax [3] | IC50 (Glucocorticoid receptor [4]) | Emax [5] | EC50 (Glucocorticoid receptor [6]) | IC50 (Glucocorticoid receptor [7]) | Emax [8] | also measured
19 | C[C@]12CCC(=O)C=C1CC[C@@H]1[C@@H]2[C@@H](O)C[C@@]2(C)[C@H]1CC[C@]2(O)C(=O)CSc1nc2ccccc2s1 | 0% | 5% | 36 nM | 97% | – | 4.8 nM | 30% | ED50 (Rattus norvegicus [9]): > 100 mg/kg; inhibition (INH) (Rattus norvegicus [10]): 27%; Drug uptake (Lung): 85 µg/kg; ED50 (Rattus norvegicus [11]): > 100 mg/kg; ED50 (Rattus norvegicus [12]): > 100 mg/kg; ED50 (Rattus norvegicus [13]): 0.42 mg/kg
20 | C[C@]12CCC(=O)C=C1CC[C@H]1[C@@H]3CC[C@](O)(C(=O)CSc4nc5ccccc5s4)[C@@]3(C)C[C@H](O)[C@@]12F | 21% | – | 18.8 nM | 95% | 535 nM | 4.6 nM | 63% | –
21 | C[C@@H]1C[C@H]2[C@@H]3CCC4=CC(=O)C=C[C@]4(C)[C@@]3(F)[C@@H](O)C[C@]2(C)[C@@]1(O)C(=O)CSc1nc2ccccc2s1 | 33% | – | 4.4 nM | 98% | 45.5 nM | 18 nM | 68% | –
